Experiments:
Assay in all cases: Post-emergence test, weed control effect
Type in all cases: in vivo
Conditions in all cases: Dose 3000 g/ha, after 3 weeks
Rorippa indica = system: Rorippa indica
Outline: (§1)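 Seeds are sown in soil pots and raised in the greenhouse until the 2-3 leaf stage. Plants are then sprayed with compound dissolved in acetone with Tween-80, diluted in water and supplemented with 80% vegetable oil methyl ester synergist at 1500 g/ha, and fresh weight inhibition is rated 0-10 three weeks later.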

Chenopodiaceae = system: Chenopodiaceae
Outline: as §1

Amaranthus retroflexus = system: Amaranthus retroflexus
Outline: as §1

Veronica polita = system: Veronica polita
Outline: as §1

Cc1ccc(S(=O)(=O)Oc2cc(C(F)(F)F)nnc2-c2ccc(F)cc2)cc1 [Compound 1-132]
10: weed control effect, Rorippa indica (activity level) (Rorippa indica) | weed control effect, Chenopodiaceae (activity level) (Chenopodiaceae) | weed control effect, Amaranthus retroflexus (activity level) (Amaranthus retroflexus) | weed control effect, Veronica polita (activity level) (Veronica polita)

O=S(=O)(Oc1cc(C(F)(F)F)nnc1-c1ccc(F)cc1)c1ccc(Cl)cc1Cl [Compound 1-133]
10: weed control effect, Rorippa indica (activity level) (Rorippa indica) | weed control effect, Chenopodiaceae (activity level) (Chenopodiaceae) | weed control effect, Amaranthus retroflexus (activity level) (Amaranthus retroflexus) | weed control effect, Veronica polita (activity level) (Veronica polita)

O=S(=O)(Oc1cc(C(F)(F)F)nnc1-c1ccc(F)cc1)c1ccc(F)cc1 [Compound 1-134]
10: weed control effect, Rorippa indica (activity level) (Rorippa indica) | weed control effect, Chenopodiaceae (activity level) (Chenopodiaceae) | weed control effect, Amaranthus retroflexus (activity level) (Amaranthus retroflexus) | weed control effect, Veronica polita (activity level) (Veronica polita)

O=[N+]([O-])c1ccc(S(=O)(=O)Oc2cc(C(F)(F)F)nnc2-c2ccc(F)c(F)c2)cc1 [Compound 1-135]
10: weed control effect, Rorippa indica (activity level) (Rorippa indica) | weed control effect, Chenopodiaceae (activity level) (Chenopodiaceae) | weed control effect, Amaranthus retroflexus (activity level) (Amaranthus retroflexus) | weed control effect, Veronica polita (activity level) (Veronica polita)

O=S(=O)(Oc1cc(C(F)(F)F)nnc1-c1ccccc1)c1cc(Cl)c(Cl)cc1Cl [Compound 1-136]
10: weed control effect, Rorippa indica (activity level) (Rorippa indica) | weed control effect, Chenopodiaceae (activity level) (Chenopodiaceae) | weed control effect, Amaranthus retroflexus (activity level) (Amaranthus retroflexus) | weed control effect, Veronica polita (activity level) (Veronica polita)

CS(=O)(=O)c1ccc(S(=O)(=O)Oc2cc(C(F)(F)F)nnc2-c2ccc(F)cc2)cc1 [Compound 1-137]
10: weed control effect, Rorippa indica (activity level) (Rorippa indica) | weed control effect, Chenopodiaceae (activity level) (Chenopodiaceae) | weed control effect, Amaranthus retroflexus (activity level) (Amaranthus retroflexus) | weed control effect, Veronica polita (activity level) (Veronica polita)

O=S(=O)(Oc1cc(C(F)(F)F)nnc1-c1ccc(F)c(F)c1)c1cc(F)c(Br)cc1F [Compound 1-138]
10: weed control effect, Rorippa indica (activity level) (Rorippa indica) | weed control effect, Chenopodiaceae (activity level) (Chenopodiaceae) | weed control effect, Amaranthus retroflexus (activity level) (Amaranthus retroflexus) | weed control effect, Veronica polita (activity level) (Veronica polita)

O=S(=O)(Oc1cc(C(F)(F)F)nnc1-c1ccc(Cl)cc1)c1cccc(OC(F)F)c1 [Compound 1-139]
10: weed control effect, Rorippa indica (activity level) (Rorippa indica) | weed control effect, Chenopodiaceae (activity level) (Chenopodiaceae) | weed control effect, Amaranthus retroflexus (activity level) (Amaranthus retroflexus) | weed control effect, Veronica polita (activity level) (Veronica polita)

CC(=O)c1cccc(S(=O)(=O)Oc2cc(C(F)(F)F)nnc2-c2ccccc2)c1 [Compound 1-140]
10: weed control effect, Rorippa indica (activity level) (Rorippa indica) | weed control effect, Chenopodiaceae (activity level) (Chenopodiaceae) | weed control effect, Amaranthus retroflexus (activity level) (Amaranthus retroflexus) | weed control effect, Veronica polita (activity level) (Veronica polita)

NC(=O)c1ccc(S(=O)(=O)Oc2cc(C(F)(F)F)nnc2-c2ccc(C(F)(F)F)cc2)cc1 [Compound 1-141]
10: weed control effect, Rorippa indica (activity level) (Rorippa indica) | weed control effect, Chenopodiaceae (activity level) (Chenopodiaceae) | weed control effect, Amaranthus retroflexus (activity level) (Amaranthus retroflexus) | weed control effect, Veronica polita (activity level) (Veronica polita)

O=S(=O)(Oc1cc(C(F)(F)F)nnc1-c1ccc(F)c(Cl)c1)c1ccc(Oc2ccc(F)cc2)cc1 [Compound 1-142]
10: weed control effect, Rorippa indica (activity level) (Rorippa indica) | weed control effect, Chenopodiaceae (activity level) (Chenopodiaceae) | weed control effect, Amaranthus retroflexus (activity level) (Amaranthus retroflexus) | weed control effect, Veronica polita (activity level) (Veronica polita)

O=S(=O)(Cc1ccccc1)Oc1cc(C(F)(F)F)nnc1-c1ccc(F)cc1 [Compound 1-143]
10: weed control effect, Rorippa indica (activity level) (Rorippa indica) | weed control effect, Chenopodiaceae (activity level) (Chenopodiaceae) | weed control effect, Amaranthus retroflexus (activity level) (Amaranthus retroflexus) | weed control effect, Veronica polita (activity level) (Veronica polita)

O=S(=O)(Oc1cc(C(F)(F)F)nnc1-c1ccc(C(F)(F)F)cc1)c1cccc2ccccc12 [Compound 1-144]
10: weed control effect, Rorippa indica (activity level) (Rorippa indica) | weed control effect, Chenopodiaceae (activity level) (Chenopodiaceae) | weed control effect, Amaranthus retroflexus (activity level) (Amaranthus retroflexus) | weed control effect, Veronica polita (activity level) (Veronica polita)

CCc1cccc(-c2nnc(C(F)(F)F)cc2OS(=O)(=O)c2nccs2)c1 [Compound 1-145]
10: weed control effect, Rorippa indica (activity level) (Rorippa indica) | weed control effect, Chenopodiaceae (activity level) (Chenopodiaceae) | weed control effect, Amaranthus retroflexus (activity level) (Amaranthus retroflexus) | weed control effect, Veronica polita (activity level) (Veronica polita)

O=S(=O)(Oc1cc(C(F)(F)F)nnc1-c1cccc(F)c1)c1ccc(Oc2ccccc2)nc1 [Compound 1-146]
10: weed control effect, Rorippa indica (activity level) (Rorippa indica) | weed control effect, Chenopodiaceae (activity level) (Chenopodiaceae) | weed control effect, Amaranthus retroflexus (activity level) (Amaranthus retroflexus) | weed control effect, Veronica polita (activity level) (Veronica polita)

O=S(=O)(Oc1cc(C(F)(F)F)nnc1-c1ccc(F)c(F)c1)c1ccc2ncsc2c1 [Compound 1-147]
10: weed control effect, Rorippa indica (activity level) (Rorippa indica) | weed control effect, Chenopodiaceae (activity level) (Chenopodiaceae) | weed control effect, Amaranthus retroflexus (activity level) (Amaranthus retroflexus) | weed control effect, Veronica polita (activity level) (Veronica polita)

O=S(=O)(Oc1cc(C(F)(F)F)nnc1-c1ccc(C(F)(F)F)cc1)c1ccc2oncc2c1 [Compound 1-148]
10: weed control effect, Rorippa indica (activity level) (Rorippa indica) | weed control effect, Chenopodiaceae (activity level) (Chenopodiaceae) | weed control effect, Amaranthus retroflexus (activity level) (Amaranthus retroflexus) | weed control effect, Veronica polita (activity level) (Veronica polita)

CCc1cccc(-c2nnc(C(F)(F)F)cc2OS(=O)(=O)c2cc3ccccc3s2)c1 [Compound 1-149]
10: weed control effect, Rorippa indica (activity level) (Rorippa indica) | weed control effect, Chenopodiaceae (activity level) (Chenopodiaceae) | weed control effect, Amaranthus retroflexus (activity level) (Amaranthus retroflexus) | weed control effect, Veronica polita (activity level) (Veronica polita)

Cn1ccnc1S(=O)(=O)Oc1cc(C(F)(F)F)nnc1-c1cccc(F)c1 [Compound 1-150]
10: weed control effect, Rorippa indica (activity level) (Rorippa indica) | weed control effect, Chenopodiaceae (activity level) (Chenopodiaceae) | weed control effect, Amaranthus retroflexus (activity level) (Amaranthus retroflexus) | weed control effect, Veronica polita (activity level) (Veronica polita)

Cn1cc(S(=O)(=O)Oc2cc(C(F)(F)F)nnc2-c2cccc(F)c2)cn1 [Compound 1-151]
10: weed control effect, Rorippa indica (activity level) (Rorippa indica) | weed control effect, Chenopodiaceae (activity level) (Chenopodiaceae) | weed control effect, Amaranthus retroflexus (activity level) (Amaranthus retroflexus) | weed control effect, Veronica polita (activity level) (Veronica polita)

Cn1ccc2ccc(S(=O)(=O)Oc3cc(C(F)(F)F)nnc3-c3ccc(F)c(F)c3)cc21 [Compound 1-152]
10: weed control effect, Rorippa indica (activity level) (Rorippa indica) | weed control effect, Chenopodiaceae (activity level) (Chenopodiaceae) | weed control effect, Amaranthus retroflexus (activity level) (Amaranthus retroflexus) | weed control effect, Veronica polita (activity level) (Veronica polita)

CCc1cccc(-c2nnc(C(F)(F)F)cc2OS(=O)(=O)c2nc3ccccc3[nH]2)c1 [Compound 1-153]
10: weed control effect, Rorippa indica (activity level) (Rorippa indica) | weed control effect, Chenopodiaceae (activity level) (Chenopodiaceae) | weed control effect, Amaranthus retroflexus (activity level) (Amaranthus retroflexus) | weed control effect, Veronica polita (activity level) (Veronica polita)

CCCCCCCCC(=S)Oc1cc(C(F)(F)F)nnc1-c1ccc(F)cc1 [Compound 1-154]
10: weed control effect, Rorippa indica (activity level) (Rorippa indica) | weed control effect, Chenopodiaceae (activity level) (Chenopodiaceae) | weed control effect, Amaranthus retroflexus (activity level) (Amaranthus retroflexus) | weed control effect, Veronica polita (activity level) (Veronica polita)

CCOC(=S)Oc1cc(C(F)(F)F)nnc1-c1ccc(C)cc1 [Compound 1-155]
10: weed control effect, Rorippa indica (activity level) (Rorippa indica) | weed control effect, Chenopodiaceae (activity level) (Chenopodiaceae) | weed control effect, Amaranthus retroflexus (activity level) (Amaranthus retroflexus) | weed control effect, Veronica polita (activity level) (Veronica polita)

CCCOC(=S)Oc1cc(C(F)(F)F)nnc1-c1ccc(OC)cc1 [Compound 1-156]
10: weed control effect, Rorippa indica (activity level) (Rorippa indica) | weed control effect, Chenopodiaceae (activity level) (Chenopodiaceae) | weed control effect, Amaranthus retroflexus (activity level) (Amaranthus retroflexus) | weed control effect, Veronica polita (activity level) (Veronica polita)

CCCCOC(=S)Oc1cc(C(F)(F)F)nnc1-c1ccc(F)c(F)c1 [Compound 1-157]
10: weed control effect, Rorippa indica (activity level) (Rorippa indica) | weed control effect, Chenopodiaceae (activity level) (Chenopodiaceae) | weed control effect, Amaranthus retroflexus (activity level) (Amaranthus retroflexus) | weed control effect, Veronica polita (activity level) (Veronica polita)

CC(C)COC(=S)Oc1cc(C(F)(F)F)nnc1-c1ccc(Cl)cc1Cl [Compound 1-158]
10: weed control effect, Rorippa indica (activity level) (Rorippa indica) | weed control effect, Chenopodiaceae (activity level) (Chenopodiaceae) | weed control effect, Amaranthus retroflexus (activity level) (Amaranthus retroflexus) | weed control effect, Veronica polita (activity level) (Veronica polita)

Cc1ccc(-c2nnc(C(F)(F)F)cc2OC(=S)OCCC(C)C)c([N+](=O)[O-])c1 [Compound 1-159]
10: weed control effect, Rorippa indica (activity level) (Rorippa indica) | weed control effect, Chenopodiaceae (activity level) (Chenopodiaceae) | weed control effect, Amaranthus retroflexus (activity level) (Amaranthus retroflexus) | weed control effect, Veronica polita (activity level) (Veronica polita)

CCCCCCOC(=S)Oc1cc(C(F)(F)F)nnc1-c1ccc(Cl)c(Cl)c1Cl [Compound 1-160]
10: weed control effect, Rorippa indica (activity level) (Rorippa indica) | weed control effect, Chenopodiaceae (activity level) (Chenopodiaceae) | weed control effect, Amaranthus retroflexus (activity level) (Amaranthus retroflexus) | weed control effect, Veronica polita (activity level) (Veronica polita)

CCN(CC)C(=S)Oc1cc(C(F)(F)F)nnc1-c1ccc(F)cc1 [Compound 1-162]
10: weed control effect, Rorippa indica (activity level) (Rorippa indica) | weed control effect, Chenopodiaceae (activity level) (Chenopodiaceae) | weed control effect, Amaranthus retroflexus (activity level) (Amaranthus retroflexus) | weed control effect, Veronica polita (activity level) (Veronica polita)

CCCCCCCCSC(=S)Oc1cc(C(F)(F)F)nnc1-c1ccc(F)c(F)c1 [Compound 1-163]
10: weed control effect, Rorippa indica (activity level) (Rorippa indica) | weed control effect, Chenopodiaceae (activity level) (Chenopodiaceae) | weed control effect, Amaranthus retroflexus (activity level) (Amaranthus retroflexus) | weed control effect, Veronica polita (activity level) (Veronica polita)

O=C(Oc1cc(C(F)(F)F)nnc1-c1ccc(F)cc1)Sc1ccccc1 [Compound 1-164]
10: weed control effect, Rorippa indica (activity level) (Rorippa indica) | weed control effect, Chenopodiaceae (activity level) (Chenopodiaceae) | weed control effect, Amaranthus retroflexus (activity level) (Amaranthus retroflexus) | weed control effect, Veronica polita (activity level) (Veronica polita)

CCS(=O)Oc1cc(C(F)(F)F)nnc1-c1ccc(F)c(F)c1 (stereo not drawn) [Compound 1-165]
10: weed control effect, Rorippa indica (activity level) (Rorippa indica) | weed control effect, Chenopodiaceae (activity level) (Chenopodiaceae) | weed control effect, Amaranthus retroflexus (activity level) (Amaranthus retroflexus) | weed control effect, Veronica polita (activity level) (Veronica polita)

— patent publication US12568972B2, “Pyridazinol compounds and derivatives, preparation methods, herbicidal compositions and applications thereof” (Qingdao Kingagroot Chemical Compound Co., Ltd., priority 2018, dated 2026)
